Data reported in patent US20220370493A1, “METHODS AND COMPOSITIONS FOR GENERATING NITRIC OXIDE AND USES THEREOF” (THIRTY HOLDINGS LIMITED, priority 2019, published 2022).

Assays:
[1] = test system: SARS-CoV-2 clinical isolate; experiment: SARS-CoV-2 virus yield reduction assay in Vero E6 cells; assay type: cell-based
Protocol: SARS-CoV-2 clinical isolate.
At time 0 hr, Vero E6 cells were infected with virus in presence of the formulation or controls and incubated for 1 hour. After this incubation period the inoculum was removed and the cells were washed. Fresh formulation or controls were then added to the washed cells. At 24 hours post infection, Vero E6 cell supernatants were harvested and titrated, and the virus titration was incubated for 6 days prior to readout to determine any virus yield reduction. Separate tests were performed at four MOIs including 3.0 and 0.3, although only those two MOIs were titrated. The readout was by crystal violet (cell monolayer) staining, followed by CPE scoring.

SMILES: O=C(O)CC(O)(CC(=O)O)C(=O)O [citric acid pH 5.8, citric acid]
- cytotoxicity on the LDH assay (Vero E6 cells): low cytotoxicity
- in vitro antiviral action against SARS-CoV-2 ([1]; FIGS. 33 and 34, MOI 3.0 and 0.3): high in vitro antiviral action

SMILES: CCN(CC)CCCC(C)Nc1ccnc2cc(Cl)ccc12 (stereo not shown) [chloroquine, Chloroquine phosphate]
- SARS-CoV-2 titre ([1]; FIG. 33, Run 1, MOI 3.0, 24 hours): limit of detection
- SARS-CoV-2 titre ([1]; FIG. 34, Run 2, MOI 3.0 and MOI 0.3, 48 hours): limit of detection
